{"source": "patent US20120129897A1", "about": "“BIS HETEROARYL INHIBITORS OF PRO-MATRIX METALLOPROTEINASE ACTIVATION” (priority 2010, published 2012)", "key": {"MMP9": {"biological_target": "T1, MMP9 (Rattus norvegicus, UniProt P50282)", "T1 construct": "Pro and active MMP9 were abundantly present in ankles of SCW-induced vehicle-treated rats; from tissue; host or cells: ankle (tibia-tarsus joint) homogenate, female Lewis rats", "T1 sequence (P50282 108-708)": "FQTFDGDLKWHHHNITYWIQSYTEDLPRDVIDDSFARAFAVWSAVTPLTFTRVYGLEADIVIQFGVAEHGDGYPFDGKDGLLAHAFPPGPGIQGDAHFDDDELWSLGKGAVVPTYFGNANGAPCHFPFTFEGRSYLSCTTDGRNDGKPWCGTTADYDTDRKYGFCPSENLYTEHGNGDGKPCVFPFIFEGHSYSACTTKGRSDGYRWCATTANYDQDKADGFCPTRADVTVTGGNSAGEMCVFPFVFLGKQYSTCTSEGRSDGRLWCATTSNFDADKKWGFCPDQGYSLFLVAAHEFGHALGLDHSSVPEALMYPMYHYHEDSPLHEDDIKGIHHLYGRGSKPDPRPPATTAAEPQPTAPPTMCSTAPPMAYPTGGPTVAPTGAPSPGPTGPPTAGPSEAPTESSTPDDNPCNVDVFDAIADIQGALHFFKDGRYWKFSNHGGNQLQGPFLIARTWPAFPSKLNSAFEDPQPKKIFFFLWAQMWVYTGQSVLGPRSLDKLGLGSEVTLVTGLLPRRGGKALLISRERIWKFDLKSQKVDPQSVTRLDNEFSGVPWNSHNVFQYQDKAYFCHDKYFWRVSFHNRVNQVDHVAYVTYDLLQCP", "test": "Western blot of pro and active MMP9 in ankles of rats with SCW-induced arthritis", "type": "in vivo", "details": "Day 26, four hours after AM dose; for Abundance of proMMP9 in ankles: mAb-L51/82, FIG. 3A", "description": "Hind-limbs were skinned, severed just above the tibia-tarsus joint and below the metatarsals, and the tibia-tarsus joints (ankles) were weighed, snap frozen and pulverized on dry ice using a hammer and anvil. The pulverized tissue was suspended in 3 volumes (w:v) of ice-cold homogenization buffer containing 50 mM Tris pH 7.5, 150 mM NaCl, 5 mM EDTA, 1% Triton X100, 0.05% Brij 30, 10% dimethylsulfoxide and Complete EDTA-free Protease Inhibitor Cocktail (Roche Diagnostics). The suspended tissue was homogenized sequentially with a Kinematica AG Polytron and a Dounce homogenizer. Homogenates were centrifuged at 16,000×g for 10 min at 4° C. and the soluble fractions were saved. Dimethylsulfoxide was removed from a portion of each soluble fraction using PD MiniTrap™ G-25 desalting columns (GE Healthcare). Homogenates (0.25 mL), free of DMSO, were diluted with an equal volume of binding buffer (i.e., homogenization buffer without dimethylsufoxide) and adjusted to contain 50 μL of a 50% slurry of gelatin-conjugated sepharose. Following 2 hours of rotation at 4° C. the beads were washed twice in binding buffer and eluted in 100 μL 2×-reducing Laemmli buffer with heating to 95° C. for 5 minutes. Eluates (20 μL) were resolved on 4-12% NuPAGE gels, transferred to 0.45 μm pore-sized nitrocellose and immunoblotted for detection of proMMP9, active MMP9, and other processed forms using mAb-L51/82 and pAb-1246 as described above for detection of MMP9 forms in synoviocyte and HFL-1 cell conditioned media.\nRats in the study reported in Tables 4 and 5 were sacrificed on Day 26 four hours after the AM dose. Ankles harvested from the right-hind-limbs were processed by the method described above. Pro and active MMP9 were abundantly present in ankles of SCW-induced vehicle-treated rats (FIGS. 3A and 3B, lanes 1-3)."}, "proMMP9": {"biological_target": "T2, proMMP9 (Homo sapiens, UniProt P14780)", "T2 construct": "endogenous in cells; host or cells: HFL-1 (ATCC CCL-153), TNFα and neutrophil elastase added", "T2 sequence (P14780 20-707 limits assumed)": "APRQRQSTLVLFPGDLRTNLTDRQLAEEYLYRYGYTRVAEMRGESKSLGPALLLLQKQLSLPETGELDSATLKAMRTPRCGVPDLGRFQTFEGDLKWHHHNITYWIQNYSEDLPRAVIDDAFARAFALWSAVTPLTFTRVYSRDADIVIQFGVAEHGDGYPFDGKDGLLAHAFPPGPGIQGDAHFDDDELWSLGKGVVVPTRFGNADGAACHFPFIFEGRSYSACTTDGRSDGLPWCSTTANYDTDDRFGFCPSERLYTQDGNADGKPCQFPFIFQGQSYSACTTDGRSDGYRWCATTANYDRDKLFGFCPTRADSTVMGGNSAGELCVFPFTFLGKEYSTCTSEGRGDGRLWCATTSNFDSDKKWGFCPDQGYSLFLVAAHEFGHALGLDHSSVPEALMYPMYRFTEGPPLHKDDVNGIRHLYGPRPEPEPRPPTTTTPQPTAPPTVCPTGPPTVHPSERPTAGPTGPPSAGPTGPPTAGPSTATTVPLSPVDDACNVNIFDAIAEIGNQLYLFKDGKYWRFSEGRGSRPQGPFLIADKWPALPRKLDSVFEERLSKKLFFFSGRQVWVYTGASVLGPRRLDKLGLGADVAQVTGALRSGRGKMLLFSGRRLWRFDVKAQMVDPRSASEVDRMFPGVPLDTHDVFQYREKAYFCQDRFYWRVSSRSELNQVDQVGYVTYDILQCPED", "test": "Activation of proMMP9 by human fetal lung fibroblast (HFL-1) cultures (Western blot)", "type": "cell-based", "details": "for Signal of 80 kD band (INT*mm^2): pAb-1246", "description": "Compound-α was assessed additionally for ability to block the maturation of proMMP9 to active MMP9 in cultures of human fetal lung fibroblasts (HFL-1, American Type Culture Collection #CCL-153). Unlike rat synoviocytes, HFL-1 cells were unable to process proMMP9 to the active form without addition of neutrophil elastase. […] Rather, the function of elastase in this assay may be to inactivate tissue inhibitors of matrix metalloproteinases (TIMPs) that repress endogenous pathways of MMP9 activation (Am J Respir Crit Care Med; 1999; 159:1138-46).\nHLF-1 were maintained in monolayer culture in DMEM with 10% FCS and were used between passage numbers 5-15. HLF-1 were embedded in collagen gels as described for rat SCW synoviocytes (vida supra). Half mL gels containing 0.4 million cells were dislodged into wells of 12 well Costar plates containing 1 mL/well of DMEM adjusted to contain 0.05% BSA and 100 ng/mL human TNFα (R&D Systems Cat #210-TA/CF). After overnight culture (37° C. and 5% CO2) wells were adjusted to contain an additional 0.5 mL of DMEM containing 0.05% BSA and with or without 13.2 μM Compound-α (final concentration was 3.3 μM Compound-α). Next, cultures were adjusted to contain 30 nM human elastase (Innovative Research). The plates were cultured an additional 72 hrs, at which time MMP9 secreted into the conditioned media was bound to gelatin-sepharose and evaluated by Western blot analysis as described for the rat synoviocyte cultures (vida supra). mAb-51/82 detected three forms of MMP9 in HFL-1 cultures.\nA second experiment was performed to determine if the 80 kD form was mature active MMP9 and to determine the potency of Compound-α as an inhibitor of MMP9 maturation in this assay. HFL-1 cells embedded in collagen gels were cultured as described above in the presence of TNFα overnight and the cultures were then adjusted to contain 30 nM elastase and graded concentrations of Compound-α for an additional 72 hrs at which time MMP9 secreted into the conditioned media was bound to gelatin-sepharose and evaluated by Western blot analysis for active MMP9 using pAb-1246 raised against the N-terminal neoepitope of active MMP9 (Table 5). In the absence of Compound-α, pAb-1246 readily detected MMP9 with an electrophoretic mobility of approximately 80 kD. […] Inhibition occurred over a dose range with an IC50 of approximately 0.3 μM Compound-α."}, "[1]": {"details": "3.3 μM, 30 nM elastase, final 72 hrs, mAb-L51/82"}}}
{"smiles": "Cc1nc(C)c(-c2csc(Nc3cc(S(N)(=O)=O)ccc3OC(C)C)n2)s1", "note": "[Compound-α, 3-(2′,4′-Dimethyl-[4,5′]bithiazolyl-2-ylamino)-4-isopropoxy-benzenesulfonamide.HBr]", "values": [{"measurement": "Abundance of proMMP9 in ankles", "setting": "MMP9", "value": "did not reduce the abundance of proMMP9"}, {"measurement": "Abundance of proMMP9 in ankles", "setting": "MMP9; listed as Compound a", "value": "did not reduce the abundance of proMMP-9"}, {"measurement": "Active 80 kD form of MMP9 in ankles", "setting": "MMP9; pAb-1246 and mAb-L51/82, FIG. 3", "value": "notable reduction in the active 80 kD form of MMP9"}, {"measurement": "Signal of 80 kD band (INT*mm^2)", "setting": "proMMP9; 0.12 μM, 30 nM elastase, final 72 hrs", "value": 168211, "unit": "INT*mm^2"}, {"measurement": "Signal of 80 kD band (INT*mm^2)", "setting": "proMMP9; 0.37 μM, 30 nM elastase, final 72 hrs", "value": 45996, "unit": "INT*mm^2"}, {"measurement": "Signal of 80 kD band (INT*mm^2)", "setting": "proMMP9; 1.1 μM, 30 nM elastase, final 72 hrs", "value": 1747, "unit": "INT*mm^2"}, {"measurement": "Percent of total signal, 80 kD", "setting": "proMMP9; [1]", "value": 7, "unit": "%"}, {"measurement": "Percent of total signal, 86 kD", "setting": "proMMP9; [1]", "value": 47, "unit": "%"}, {"measurement": "Percent of total signal, 100 kD", "setting": "proMMP9; [1]", "value": 46, "unit": "%"}, {"measurement": "Signal (INT*mm^2), 80 kD", "setting": "proMMP9; [1]", "value": 6092, "unit": "INT*mm^2"}, {"measurement": "Signal (INT*mm^2), 86 kD", "setting": "proMMP9; [1]", "value": 43147, "unit": "INT*mm^2"}, {"measurement": "Signal (INT*mm^2), 100 kD", "setting": "proMMP9; [1]", "value": 42107, "unit": "INT*mm^2"}, {"measurement": "Signal (INT*mm^2), Total", "setting": "proMMP9; [1]", "value": 91346, "unit": "INT*mm^2"}, {"measurement": "Signal of 80 kD band (INT*mm^2)", "setting": "proMMP9; 3.3 μM, 30 nM elastase, final 72 hrs", "value": 152, "unit": "INT*mm^2"}, {"measurement": "Processing of MMP9 forms by HFL-1 cells", "setting": "proMMP9; 3.3 μM, mAb-L51/82", "value": "the formation of the 80 kD form was suppressed"}, {"measurement": "Signal of 80 kD band (INT*mm^2)", "setting": "proMMP9; 10 μM, 30 nM elastase, final 72 hrs", "value": 0, "unit": "INT*mm^2"}]}
